For data set [1], the system named is mupirocin resistant S. aureus strains (MMX 1013, MMX 7779, MMX 7782, MMX 8845, MMX 9202). Description: MIC versus mupirocin resistant S. aureus panel. Type of data set: cell-based. Particulars: Staphylococcus aureus; mupirocin resistant S. aureus MMX 1013, MMX 7779, MMX 7782, MMX 8845, MMX 9202. As to the method: (§1) Using a broth microdilution assay according to Clinical Laboratory Standards Institute (CSLI) guidelines, we tested 5-(2,5-bis(4-chloro-2-isopropylphenyl)thiophen-3-yl)-1H-tetrazole (“Test Article” in below table) to establish MICs against a broad range of MDR bacteria and noted substantive activity versus methicillin-resistant Staphylococcus aureus (MRSA), vancomycin-resistant Enterococcus (VRE) and Streptococcus spp. Antimicrobial susceptibility testing was performed by a microdilution broth assay according to CLSI guidelines. The inoculum was prepared from stationary-phase cultures diluted in water. Microtiter plate wells received aliquots of 100 μL of the compound diluted in Mueller-Hinton II cation adjusted media. The final concentration of compound typically ranged from 250 to 0.125 μg/ml in serial two-fold dilutions. In addition to the test compound, growth and sterility controls were included, along with DMSO vehicle control rows. The microtiter plates were inoculated with 5×10^5 bacteria and incubated overnight at 35° C. in a humidified atmosphere.

A further data set concerns S. aureus AcpS. The data set is described as follows: MIC shift upon AcpS over-expression in E. coli strain D22. Type of data set: cell-based. As to conditions: E. coli D22 over-expressing S. aureus AcpS, IPTG inducible. An excerpt:
(§2) To determine if AcpS inhibition is the main in vivo target that results in bacterial killing by 5-(2,5-bis(4-chloro-2-isopropylphenyl)thiophen-3-yl)-1H-tetrazole, we over-expressed AcpS in bacteria. An E. coli strain genetically engineered to have a porous outer membrane (strain D22) was transformed with a plasmid expressing either E. coli or S. aureus AcpS under control of an IPTG inducible promoter.

Another data set addresses T1, E. coli AcpS (Escherichia coli, UniProt P24224).
T1 construct: expressed in transfected cells; host or cells: E. coli strain D22 (porous outer membrane)
The data set is described as above. Type of data set: cell-based. As to conditions: E. coli D22 over-expressing E. coli AcpS, IPTG inducible.
From the text: as §2

Data set [2] relates to E. faecalis ATCC51599 vancomycin resistant. Description: broth microdilution MIC (CLSI). As to conditions: Enterococcus faecalis, read-out: Antibacterial activity (MIC). Type of data set: cell-based. The method, then:
as §1

The subject of data set [3] is S. epidermidis NRS7 vancomycin intermediate. Description: broth microdilution MIC (CLSI). Type of data set: cell-based. Particulars: Staphylococcus epidermidis, read-out: Antibacterial activity (MIC). As to the method: as §1
Data set [4] concerns S. aureus MRSA USA200 epidemic strain. The data set is described as follows: broth microdilution MIC (CLSI). Type of data set: cell-based. As to conditions: Staphylococcus aureus; S. aureus MRSA USA200 epidemic strain; read-out: Antibacterial activity (MIC). The method, then:
as §1

Data set [5] has as its system S. aureus MRSA USA100 epidemic strain. Description: broth microdilution MIC (CLSI). Type of data set: cell-based. As to conditions: Staphylococcus aureus; S. aureus MRSA USA100 epidemic strain; read-out: Antibacterial activity (MIC). As to the method: as §1
Data set [6] concerns S. aureus MRSA clinical isolate multi resistant. Description: broth microdilution MIC (CLSI). Type of data set: cell-based. As to conditions: Staphylococcus aureus; S. aureus MRSA clinical isolate multi resistant; read-out: Antibacterial activity (MIC). The method, then:
as §1

Data set [7] relates to panel of 125 important Gram positive strains and MDR clinical isolates of MRSA, VRE, and S. epidermidis. The data set is described as follows: MIC versus panel of 125 strains. Type of data set: cell-based. As to conditions: panel of 125 strains incl. strains resistant to vancomycin, penicillin, erythromycin and ciprofloxacin. The method, then: Using a broth microdilution assay according to Clinical Laboratory Standards Institute (CSLI) guidelines, we tested 5-(2,5-bis(4-chloro-2-isopropylphenyl)thiophen-3-yl)-1H-tetrazole (“Test Article” in below table) to establish MICs against a broad range of MDR bacteria and noted substantive activity versus methicillin-resistant Staphylococcus aureus (MRSA), vancomycin-resistant Enterococcus (VRE) and Streptococcus spp. Antimicrobial susceptibility testing was performed by a microdilution broth assay according to CLSI guidelines. The inoculum was prepared from stationary-phase cultures diluted in water. Microtiter plate wells received aliquots of 100 μL of the compound diluted in Mueller-Hinton II cation adjusted media. The final concentration of compound typically ranged from 250 to 0.125 μg/ml in serial two-fold dilutions. In addition to the test compound, growth and sterility controls were included, along with DMSO vehicle control rows. The microtiter plates were inoculated with 5×10^5 bacteria and incubated overnight at 35° C. in a humidified atmosphere. […]

For the next data set, the target named is LpxA (Escherichia coli, UniProt P0A722). The data set is described as follows: in vitro enzyme assay, selectivity. Type of data set: biochemical. As to conditions: ACP utilizing bacterial enzyme.
Chain of LpxA (P0A722 whole entry): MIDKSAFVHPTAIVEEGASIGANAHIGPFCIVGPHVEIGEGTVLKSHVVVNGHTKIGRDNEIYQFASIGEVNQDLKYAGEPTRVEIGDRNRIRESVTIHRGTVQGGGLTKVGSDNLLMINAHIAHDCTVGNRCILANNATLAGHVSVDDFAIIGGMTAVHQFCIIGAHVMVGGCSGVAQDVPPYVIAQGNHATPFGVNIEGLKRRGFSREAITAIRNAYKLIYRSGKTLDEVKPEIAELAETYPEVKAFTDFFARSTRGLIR
Data set [8] deals with mupirocin resistant strains of E. faecalis VRE. Description: activity against mupirocin resistant strains. Type of data set: cell-based.
For data set [9], the system named is mupirocin resistant strains of E. faecalis. The data set is described as follows: activity against mupirocin resistant strains. Type of data set: cell-based.
Data set [10] can be described thus: dermal pharmacokinetics on full thickness human cadaver skin (Franz cells). Type of data set: in vitro ADME. As to conditions: 2% w/w in GLAXAL BASE. An excerpt:
Full thickness human skin was taken from the torso of a post-mortem human donor and stores at −80 degrees Celsius. On the day of the study, skin pieces were thawed for at least […] at room temperature in saline, then divided into individual pieces of approximately 2 cm length×2 cm width from which seven pieces of full thickness skin was selected. Approximately ⅔ of the width of the hypodermis layer was trimmed in order to mount the selected pieces into Franz cells. Receiver buffer was prepared (Krebs-Ringer bicarbonate buffer containing 10 mM HEPES, 15 mM sodium bicarbonate, and 1.2 mM calcium chloride; adjusted to pH 7.4 and fortified with 0.1% sodium azide and 1% bovine serum albumin). Each piece was equilibrated for 30 min with 12 mL of receiver buffer at 32 degrees Celsius by a water-jacket/stirring module running at 600 rpm. Transepithelial water loss was read for each piece after 30 mins using a vapometer. Exposed surface area of the piece was 1.77 square cm.
Approximately 300 ul of 5-(2,5-bis(4-chloro-2-isopropylphenyl)thiophen-3-yl)-1H-tetrazole formulated in 2% w/w GLAXAL BASE™ (Emollient Cream) was applied directly through syringe on top of each piece. Receiver samples were taken from the receiver compartment of each Franz cell at 3, 6, 12, 18, and 24 hours and replaced with an equal volume of fresh, warm buffer to maintain sink conditions. At the end of 24 hours, the bulk amount of formulation remaining on each piece of skin was wiped using cotton tips, stored together in a dry vial for analysis. Epidermis and dermis were then separated gently using forceps after a brief heat treatment at 60 degrees Celsius for no longer than 2 minutes. Each layer was then blotted dry, weighted and stored in separate glass vials. All samples were stored at −80 degrees Celsius until analysis by LC/MS-MS.
The cumulative concentrations of 5-(2,5-bis(4-chloro-2-isopropylphenyl)thiophen-3-yl)-1H-tetrazole that permeated at each time point were calculated by the sum of the measured concentration at that time point plus 1/12 of the measured concentrations at the previous time points (since 1 mL out of the 12 mL total receiver volume is withdrawn and replaced each time). The flux values over the course of the 24 hour permeation period were calculated from the slope of the linear portion of the curve. Flux was represented by the equation Flux=d[(Cr-T×Vr)/dt/A where Cr-T is the cumulative concentration at each time point (ng/mL); Vr is 12 mL; t is duration in hours; and A is the surface area of 1.77 square cm.

For the next data set, the system named is fatty acid synthase. The data set is described as follows: in vitro enzyme assay, selectivity. Type of data set: biochemical. As to conditions: ACP utilizing bacterial enzyme.
The mark [11] stands for this setting: end of 24 hour permeation, LC-MS/MS.

The structures appear in SMILES notation. In brackets after ≈: the same amount, converted by molar mass.

T1 sequence (P24224 whole entry): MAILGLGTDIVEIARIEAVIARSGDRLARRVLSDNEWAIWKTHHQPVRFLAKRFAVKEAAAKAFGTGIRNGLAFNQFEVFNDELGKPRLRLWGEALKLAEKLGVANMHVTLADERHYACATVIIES

With `CC(C)c1cc(Cl)ccc1-c1cc(-c2nnn[nH]2)c(-c2ccc(Cl)cc2C(C)C)s1` [Test Article, 5-(2,5-bis(4-chloro-2-isopropylphenyl)thiophen-3-yl)-1H-tetrazole], the MIC in [1] was found to be 2 µg/mL (≈ 4.37 µM); in data set [2], 0.5 µg/mL (≈ 1.09 µM); in [3], 1 µg/mL (≈ 2.19 µM); in data set [4], 0.5 µg/mL (≈ 1.09 µM); in [5], 1 µg/mL (≈ 2.19 µM); in data set [6], 0.5 µg/mL (≈ 1.09 µM). Besides, the MIC in [7] fell in the range of 0.5 to 1 µg/mL (≈ 1.09 to 2.19 µM). The “shift of MIC to higher concentration upon increased AcpS expression” value is 16 fold with S. aureus AcpS and 32 fold at E. coli AcpS. Also, the “inhibition of LpxA” value at LpxA is recorded as “did not inhibit”. For the same compound, the activity entry in data set [8] and in data set [9] was “retained activity” each time. Moreover, the “Flux from top through to bottom of skin” value in data set [10] (24 hour permeation period) is reported as “less than 0.141 ng/hr/cm^2”. The “compound in the receiver samples” value in data set [10] (end of 24 hour permeation period, lower limit of detection 0.5 ng/mL) is “no detectable”. Further, the level in dermis in data set [10] (setting [11]) came out at 0.821±0.469 ng per mg tissue. This compound returned a level in epidermis in data set [10] (setting [11]) of 163±58.0 ng per mg tissue. For the same compound, the level in hypodermis in data set [10] (setting [11]) stood at 1.86±1.04 ng per mg tissue. Besides, the “inhibition of fatty acid synthase” value in the data set on fatty acid synthase was “did not inhibit”.
